Active and inactive are the calls of the source. The calls are words filed in the database; no cut-off is given here.
Tests used:
Meloidogyne incognita [1] = test: Nematicidal activity against second-stage juvenile Meloidogyne incognita (root-knot nematode) infested tomato field assessed as plant vigour at 8 kg/hectare measured after 30 days; type: functional
Meloidogyne incognita [2] = test: Nematicidal activity against second-stage juvenile Meloidogyne incognita (root-knot nematode) infested tomato field assessed as plant height at 8 kg/hectare measured after 50 days; type: functional
Meloidogyne incognita [3] = test: Nematicidal activity against second-stage juvenile Meloidogyne incognita (root-knot nematode) infested tomato field assessed as marketable yield at 8 kg/hectare; type: functional
Meloidogyne incognita [4] = test: Nematicidal activity against second-stage juvenile Meloidogyne incognita (root-knot nematode) infested tomato field assessed as extra-large fruit yield at 8 kg/hectare; type: functional
Meloidogyne incognita [5] = test: Nematicidal activity against second-stage juvenile Meloidogyne incognita (root-knot nematode) infested tomato plant under greenhouse condition assessed as fresh root weight at 8 kg/hectare measured after 30 days; type: functional
Meloidogyne incognita [6] = test: Nematicidal activity against second-stage juvenile Meloidogyne incognita (root-knot nematode) infested tomato field assessed as large fruit yield at 8 kg/hectare; type: functional
Meloidogyne incognita [7] = test: Nematicidal activity against second-stage juvenile Meloidogyne incognita (root-knot nematode) infested tomato field assessed as plant height at 8 kg/hectare measured after 30 days; type: functional
Meloidogyne incognita [8] = test: Nematicidal activity against second-stage juvenile Meloidogyne incognita (root-knot nematode) infested tomato plant under greenhouse condition assessed as reduction in root galling index at 8 kg/hectare measured after 30 days; type: functional, organism-based
Meloidogyne incognita [9] = test: Nematicidal activity against second-stage juvenile Meloidogyne incognita (root-knot nematode) infested tomato plant under greenhouse condition assessed as plant height at 8 kg/hectare measured after 30 days; type: functional
Meloidogyne incognita [10] = test: Nematicidal activity against second-stage juvenile Meloidogyne incognita (root-knot nematode) assessed as mortality after 48 hr; type: functional
Meloidogyne incognita [11] = test: Nematicidal activity against second-stage juvenile Meloidogyne incognita (root-knot nematode) infested tomato field assessed as reduction in number of nematodes in soil at 8 kg/hectare measured after 60 days; type: functional, organism-based
Meloidogyne incognita [12] = test: Nematicidal activity against second-stage juvenile Meloidogyne incognita (root-knot nematode) infested tomato field assessed as medium fruit yield at 8 kg/hectare; type: functional
Meloidogyne incognita [13] = test: Nematicidal activity against second-stage juvenile Meloidogyne incognita (root-knot nematode) infested tomato field assessed as reduction in root galling index at 8 kg/hectare measured after 30 days; type: functional, organism-based
Meloidogyne incognita [14] = test: Nematicidal activity against second-stage juvenile Meloidogyne incognita (root-knot nematode) infested tomato plant under greenhouse condition assessed as plant vigour at 8 kg/hectare measured after 30 days; type: functional
Meloidogyne incognita [15] = test: Nematicidal activity against second-stage juvenile Meloidogyne incognita (root-knot nematode) infested tomato field assessed as reduction in number of nematodes in soil at 8 kg/hectare measured after 20 days; type: functional, organism-based
Meloidogyne incognita [16] = test: Nematicidal activity against second-stage juvenile Meloidogyne incognita (root-knot nematode) infested tomato field assessed as reduction in number of nematodes in soil at 8 kg/hectare measured after 40 days; type: functional, organism-based

CCOP(=O)(SC(C)CC)SC(C)CC (configuration not stated) [CADUSAFOS]
Activity (Meloidogyne incognita [1]): 90%
Activity (Meloidogyne incognita [2]): 101.8 cm
Activity (Meloidogyne incognita [3]): 68.7%
Activity (Meloidogyne incognita [4]): 7.2%
Activity (Meloidogyne incognita [5]): 1.13 g
Activity (Meloidogyne incognita [6]): 19.9%
Activity (Meloidogyne incognita [7]): 38.6 cm
Activity (Meloidogyne incognita [8]): Active
Activity (Meloidogyne incognita [9]): 39.2 cm
LC50 (Meloidogyne incognita [10]): 13.43 mgAi/L
LC90 (Meloidogyne incognita [10]): 50.34 mgAi/L
Activity (Meloidogyne incognita [11]): Active
Activity (Meloidogyne incognita [12]): 41.6%
Activity (Meloidogyne incognita [13]): Active
Activity (Meloidogyne incognita [14]): 91%
Activity (Meloidogyne incognita [15]): Active
Activity (Meloidogyne incognita [16]): Active

— ChEMBL document CHEMBL3045788, “Effect of abamectin on root-knot nematodes and tomato yield” (Pest Manag Sci, 2012)
